Data published in patent US12668646B2, “Cross-linking compounds and methods of use thereof” (North Carolina State University, priority 2019, dated 2026).
Several values for one entry are separate records, joined by “and”; a condition that tells them apart may be missing. Equal values may be shown once.

Test system: β-glucosidase from almonds
Assay: Indigogenic reaction with β-glucosidase from almonds
Type: biochemical
[1] = indoxyl 1 mM, enzyme 1 unit/mL, 0.01M acetate buffer pH 5, 5% DMF, 37° C., 16-19 h, ϵ = 1.27 × 10^4 M^−1 cm^−1 measured for 4

Row | Molecule | Yield (%) β-glucosidase from almonds [1] [%] | Yield (%) β-glucosidase from almonds (as E1 but ϵ = 2.00 × 10^4 M^−1 cm^−1 reported for 5,5′-dibromo-4,4′-dichloroindigo)
1 | COC(=O)COc1ccc2[nH]cc(O[C@@H]3O[C@H](CO)[C@@H](O)[C@H](O)[C@H]3O)c2c1 [Compound 22, 5-(Methoxycarbonyl)methoxy-1H-indol-3-yl β-D-glucopyranoside] | <1 | –
2 | 5-bromo-4-chloroindoxyl β-glucoside [Compound 42, reference compound] | – | 74% and 74^e %
3 | C#CCOc1ccc2[nH]cc(O[C@@H]3O[C@H](CO)[C@@H](O)[C@H](O)[C@H]3O)c2c1 [Compound 25, 5-Propargyloxy-1H-indol-3-yl β-D-glucopyranoside] | <5 | –
4 | COC(=O)COc1ccc2[nH]cc(O[C@@H]3O[C@H](CO)[C@@H](O)[C@H](O)[C@H]3O)c2c1Br [Compound 23, 4-Bromo-5-(methoxycarbonyl)methoxy-1H-indol-3-yl β-D-glucopyranoside] | 68 | –
5 | C#CCOc1ccc2[nH]cc(O[C@@H]3O[C@H](CO)[C@@H](O)[C@H](O)[C@H]3O)c2c1Br [Compound 26, 4-Bromo-5-propargyloxy-1H-indol-3-yl β-D-glucopyranoside] | 56 | –
